{"source": "ChEMBL document CHEMBL5518165", "about": "“M335, a novel small-molecule STING agonist activates the immune response and exerts antitumor effects” (Eur J Med Chem, 2024)", "key": {"Human alphaherpesvirus 1 [1]": {"tested_on": "Human alphaherpesvirus 1", "assay": "Antiviral activity against HSV-1-GFP infected in mouse MC38 cells assessed as reduction in viral infection by fluorescent microscopy analysis", "type": "functional, organism-based"}, "CT26 [2]": {"tested_on": "CT26", "assay": "Antitumor activity against mouse CT26 cells […] mouse assessed as augmentation of CD3+ T cells in spleen at 5 mg/kg, ip administered every 2 days (reference value: 13.9%)", "type": "functional"}, "[3]": {"target": "Stimulator of interferon genes protein (Homo sapiens) (UniProt Q86WV6)", "sequence (Q86WV6 whole entry)": "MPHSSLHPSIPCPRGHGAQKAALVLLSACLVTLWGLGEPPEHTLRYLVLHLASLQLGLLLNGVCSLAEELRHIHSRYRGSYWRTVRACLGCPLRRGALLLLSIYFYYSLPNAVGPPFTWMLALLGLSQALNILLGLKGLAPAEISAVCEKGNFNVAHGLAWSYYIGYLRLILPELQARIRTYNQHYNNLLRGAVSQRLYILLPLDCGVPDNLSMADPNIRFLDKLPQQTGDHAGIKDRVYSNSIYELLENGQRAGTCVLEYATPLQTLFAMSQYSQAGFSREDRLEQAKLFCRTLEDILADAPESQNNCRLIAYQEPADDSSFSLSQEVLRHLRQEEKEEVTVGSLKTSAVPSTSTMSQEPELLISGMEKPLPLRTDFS", "assay": "Agonist activity at STING in human THP-1 cells assessed as increase in CXCL10 mRNA level at 20 uM measured for 4 hrs by qPCR analysis", "type": "cell-based", "details": "filed as agonist"}, "MC-38 [4]": {"tested_on": "MC-38", "assay": "Antitumor activity against mouse MC38 cells allografted in C57/BL6 mouse assessed as increase in CD8+ T cells in tumor tissue at 300 ug, IT administered every 2 days by flow cytometry analysis (reference value: 4.10%)", "type": "functional", "details": "dose 300 µg"}, "Human alphaherpesvirus 1 [5]": {"tested_on": "Human alphaherpesvirus 1", "assay": "Antiviral activity against HSV-1-GFP infected in human THP-1 cells assessed as reduction in viral infection at 10 to 30 uM pre-infected with virus for 48 hrs followed by compound addition and measured after 6 hrs by flow cytometry analysis", "type": "functional, organism-based", "details": "dose 10-30 µM"}, "[6]": {"target": "Stimulator of interferon genes protein (Homo sapiens) (UniProt Q86WV6)", "assay": "Agonist activity at STING in human THP-1 cells assessed as increase in STING oligomerization by Western blotting analysis", "type": "cell-based", "details": "filed as agonist, dose 5-40 µM"}, "CT26 [7]": {"tested_on": "CT26", "assay": "Antitumor activity against mouse CT26 cells […] mouse assessed as augmentation of CD3+ T cells in spleen at 10 mg/kg, ip administered every 2 days (reference value: 13.9%)", "type": "functional"}, "[8]": {"assay": "Toxicity in C57/BL6 mouse xenografted with mouse MC38 cells assessed as organ damage at 300 ug, IT administered every 2 days by hematoxylin and eosin staining based histological analysis", "type": "cell-based, MC-38", "details": "in vivo, other, 48 h, dose 300 µg"}, "THP-1": {"tested_on": "THP-1", "assay": "Upregulation of CXCL10 mRNA level in STING-knockout human THP-1 cells at 20 uM measured for 4 hrs by qPCR analysis", "type": "functional, cell-based"}, "[9]": {"target": "Stimulator of interferon genes protein (Homo sapiens) (UniProt Q86WV6)", "assay": "Agonist activity at STING in human THP-1 cells assessed as upregulation of innate immune response related genes by gene ontology analysis", "type": "cell-based", "details": "filed as agonist"}, "CT26 [10]": {"tested_on": "CT26", "assay": "Antitumor activity against mouse CT26 cells allografted in […] mouse assessed as augmentation of CD45+ cells in spleen at 5 mg/kg, ip administered every 2 days (reference value: 35.1%)", "type": "functional"}, "[11]": {"target": "T1, Stimulator of interferon genes protein (Mus musculus) (UniProt Q3TBT3)", "T1 sequence (whole entry)": "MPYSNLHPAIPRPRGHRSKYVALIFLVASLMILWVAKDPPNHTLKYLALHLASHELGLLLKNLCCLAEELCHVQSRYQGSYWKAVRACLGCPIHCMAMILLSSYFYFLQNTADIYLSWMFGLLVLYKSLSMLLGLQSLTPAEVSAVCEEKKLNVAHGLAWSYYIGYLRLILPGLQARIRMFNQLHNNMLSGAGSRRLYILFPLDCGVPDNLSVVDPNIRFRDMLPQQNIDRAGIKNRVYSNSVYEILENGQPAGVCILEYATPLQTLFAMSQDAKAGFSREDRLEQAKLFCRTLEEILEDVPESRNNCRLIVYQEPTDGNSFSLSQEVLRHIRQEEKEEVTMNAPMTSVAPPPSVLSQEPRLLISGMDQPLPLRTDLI", "assay": "Agonist activity at STING in MEF cells assessed as STING translocation to golgi apparatus by measuring increase in red fluorescence incubated for 1 hr by laser scanning confocal microscope analysis", "type": "cell-based", "details": "filed as agonist"}, "MC-38 [12]": {"tested_on": "MC-38", "assay": "Antitumor activity against mouse MC38 cells allografted in C57/BL6 mouse assessed as increase in CD8+ T cells in spleen at 300 ug, IT administered every 2 days by flow cytometry analysis (reference value: 8.80%)", "type": "functional", "details": "dose 300 µg"}, "[13]": {"target": "Stimulator of interferon genes protein (Homo sapiens) (UniProt Q86WV6)", "assay": "Binding affinity to human STING CTD assessed as decrease in protein stability by Western blotting analysis", "details": "filed as agonist"}, "CT26 [14]": {"tested_on": "CT26", "assay": "Antitumor activity against mouse CT26 cells […] mouse assessed as augmentation of CD3+ T cells in spleen at 20 mg/kg, ip administered every 2 days (reference value: 13.9%)", "type": "functional"}, "[15]": {"target": "Stimulator of interferon genes protein (Homo sapiens) (UniProt Q86WV6)", "assay": "Agonist activity at STING in human THP-1 cells assessed as increase in TBK1 phosphorylation at 20 uM measured for 4 hrs by Western blotting analysis", "type": "cell-based", "details": "filed as agonist"}, "CT26 [16]": {"tested_on": "CT26", "assay": "Antitumor activity against mouse CT26 cells allografted in ip dosed […] mouse assessed as reduction in tumor growth administered every 2 days", "type": "functional, organism-based", "details": "dose 5-20 mg/kg"}, "[17]": {"target": "Stimulator of interferon genes protein (Homo sapiens) (UniProt Q86WV6)", "assay": "Agonist activity at STING in human THP-1 cells assessed as upregulation of interferon stimulated genes at 20 uM by RNA sequencing analysis", "type": "cell-based", "details": "filed as agonist"}, "B16-F10": {"tested_on": "B16-F10", "assay": "Antitumor activity against mouse B16-F10 cells allografted in C57/BL6 mouse assessed as reduction in tumor growth at 300 ug, IT administered every 2 days", "type": "functional, cell-based", "details": "dose 300.0 µg"}, "Human alphaherpesvirus 1 [18]": {"tested_on": "Human alphaherpesvirus 1", "assay": "Antiviral activity against HSV-1-GFP infected in human HeLa cells assessed as reduction in viral infection by fluorescent microscopy analysis", "type": "functional, organism-based"}, "Human alphaherpesvirus 1 [19]": {"tested_on": "Human alphaherpesvirus 1", "assay": "Antiviral activity against HSV-1-GFP infected in human THP-1 cells assessed as reduction in viral infection pre-infected with virus for 24 hrs followed by compound addition and measured after 6 hrs by flow cytometry analysis", "type": "functional, organism-based", "details": "dose 10-30 µM"}, "CT26 [20]": {"tested_on": "CT26", "assay": "Antitumor activity against mouse CT26 cells […] mouse assessed as augmentation of CD45+ cells in spleen at 20 mg/kg, ip administered every 2 days (reference value: 35.1%)", "type": "functional", "details": "time 2 day"}, "[21]": {"target": "T1, Stimulator of interferon genes protein (Mus musculus)", "assay": "Agonist activity at STING in MEF cells assessed as nuclear transposition of phosphorylated IRF3 incubated for 1 hr by laser scanning confocal microscope analysis", "type": "cell-based", "details": "filed as agonist"}, "[22]": {"assay": "Toxicity in C57/BL6 mouse allografted with mouse B16-F10 cells assessed as change in body weight at 300 ug, IT administered every 2 days", "type": "cell-based", "details": "in vivo, other, 48 h, dose 300 µg"}, "CT26 [23]": {"tested_on": "CT26", "assay": "Antitumor activity against mouse CT26 cells allografted in […] mouse assessed as reduction in tumor development at 300 ug, IT administered every 2 days", "type": "functional, cell-based", "details": "dose 300.0 µg"}, "MC-38 [24]": {"tested_on": "MC-38", "assay": "Induction of apoptosis in mouse MC38 cells allografted in C57/BL6 mouse a at 300 ug, IT administered every 2 days", "type": "functional, cell-based", "details": "dose 300.0 µg"}, "[25]": {"target": "Stimulator of interferon genes protein (Homo sapiens) (UniProt Q86WV6)", "assay": "Agonist activity at STING in human THP-1 cells assessed as TBK1 phosphorylation at 20 uM measured for 4 hrs in presence of H-151 by Western blotting analysis", "type": "cell-based"}, "[26]": {"target": "Stimulator of interferon genes protein (Homo sapiens) (UniProt Q86WV6)", "assay": "Agonist activity at STING in human THP-1 cells assessed as increase in IL6 mRNA level at 20 uM measured for 4 hrs by qPCR analysis", "type": "cell-based", "details": "filed as agonist"}, "[27]": {"target": "Stimulator of interferon genes protein (Homo sapiens) (UniProt Q86WV6)", "assay": "Agonist activity at STING in human THP-1 cells assessed as increase in ISG15 mRNA level at 20 uM measured for 4 hrs by qPCR analysis", "type": "cell-based", "details": "filed as agonist"}, "[28]": {"target": "Stimulator of interferon genes protein (Homo sapiens) (UniProt Q86WV6)", "assay": "Agonist activity at STING in human THP-1 cells assessed as increase in LC3 protein level at 20 uM measured for 4 hrs by Western blotting analysis", "type": "cell-based", "details": "filed as agonist"}, "MC-38 [29]": {"tested_on": "MC-38", "assay": "Antitumor activity against mouse MC38 cells allografted in C57/BL6 mouse assessed as increase in IL-6 level in serum at 300 ug, IT administered every 2 days by ELISA", "type": "functional, cell-based", "details": "dose 300.0 µg"}}, "note": "Active and inactive are the calls of the source. No cut-off for these calls is given here."}
{"molecule": "CC(NCCC(c1ccccc1)c1ccccc1)c1ccccc1", "note": "(stereo unspecified) [FENDILINE]", "values": [{"measurement": "Activity", "setting": "Human alphaherpesvirus 1 [1]", "value": "Active"}, {"measurement": "Activity", "setting": "CT26 [2]", "value": 20.3, "unit": "%"}, {"measurement": "Activity", "setting": "[3]", "value": "Active"}, {"measurement": "Activity", "setting": "MC-38 [4]", "value": 14.7, "unit": "%"}, {"measurement": "Activity", "setting": "Human alphaherpesvirus 1 [5]", "value": "Active"}, {"measurement": "Activity", "setting": "[6]", "value": "Dose-Dependent Effect"}, {"measurement": "Activity", "setting": "CT26 [7]", "value": 28.6, "unit": "%"}, {"measurement": "Activity", "setting": "[8]", "value": "Non-Toxic"}, {"measurement": "Activity", "setting": "THP-1", "value": "inactive"}, {"measurement": "Activity", "setting": "[9]", "value": "Active"}, {"measurement": "Activity", "setting": "CT26 [10]", "value": 42.5, "unit": "%"}, {"measurement": "Activity", "setting": "[11]", "value": "Active"}, {"measurement": "Activity", "setting": "MC-38 [12]", "value": 14.3, "unit": "%"}, {"measurement": "Activity", "setting": "[13]", "value": "Active"}, {"measurement": "Activity", "setting": "CT26 [14]", "value": 41.4, "unit": "%"}, {"measurement": "Activity", "setting": "[15]", "value": "Active"}, {"measurement": "Activity", "setting": "CT26 [16]", "value": "Dose-Dependent Effect"}, {"measurement": "Activity", "setting": "[17]", "value": "Active"}, {"measurement": "Activity", "setting": "B16-F10", "value": "Active"}, {"measurement": "Activity", "setting": "Human alphaherpesvirus 1 [18]", "value": "Active"}, {"measurement": "Activity", "setting": "Human alphaherpesvirus 1 [19]", "value": "Dose-Dependent Effect"}, {"measurement": "Activity", "setting": "CT26 [20]", "value": 76.1, "unit": "%"}, {"measurement": "Activity", "setting": "[21]", "value": "Active"}, {"measurement": "Activity", "setting": "[22]", "value": "Non-Toxic"}, {"measurement": "Activity", "setting": "CT26 [23]", "value": "Active"}, {"measurement": "Activity", "setting": "MC-38 [24]", "value": "inactive"}, {"measurement": "Activity", "setting": "[25]", "value": "inactive"}, {"measurement": "Activity", "setting": "[26]", "value": "Active"}, {"measurement": "Activity", "setting": "[27]", "value": "Active"}, {"measurement": "Activity", "setting": "[28]", "value": "Active"}, {"measurement": "Activity", "setting": "MC-38 [29]", "value": "Active"}]}
